Reference: BindingDB's records for doi:10.7270/Q2TX3CTT (Broad Institute, 2010)

target: Glycogen synthase kinase-3 beta (Homo sapiens, UniProt P49841); assay: concentration-response blocking of human GSK3B – biochemical, luminescence, cell-free homogeneous, retest, dose response (AID 434954)
Sequence (P49841 whole entry): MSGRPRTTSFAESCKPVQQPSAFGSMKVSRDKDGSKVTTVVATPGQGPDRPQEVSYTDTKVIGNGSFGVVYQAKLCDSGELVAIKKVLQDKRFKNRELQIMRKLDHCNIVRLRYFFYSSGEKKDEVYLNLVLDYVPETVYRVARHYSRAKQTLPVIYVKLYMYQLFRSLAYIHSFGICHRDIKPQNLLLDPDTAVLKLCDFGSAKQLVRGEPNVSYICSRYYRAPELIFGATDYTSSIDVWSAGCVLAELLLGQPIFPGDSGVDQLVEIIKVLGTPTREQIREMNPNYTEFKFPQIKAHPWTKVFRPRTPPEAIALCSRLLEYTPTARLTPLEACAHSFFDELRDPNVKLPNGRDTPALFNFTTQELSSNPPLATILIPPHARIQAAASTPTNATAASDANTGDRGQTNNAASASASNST

`Cc1cnc(C(=O)OCC(=O)N2c3ccccc3CC2C)cn1` (stereo unspecified) [[2-(2-methyl-2,3-dihydroindol-1-yl)-2-oxoethyl] 5-methylpyrazine-2-carboxylate] and `Cc1cc(N2CCN(C(=O)c3ccco3)CC2)c2ccccc2n1` [SMR000460267] cannot be ordered by EC50: greater than 300 µM for the first, greater than 300 µM for the second.

`Cc1cc(=O)nc2c3ccccc3n(CC(=O)NCCCN3CCCCC3C)n12` (stereo unspecified) [MLS001115992] and `Cc1ccc2sc(N3CCN(CCNC(=O)c4ccco4)CC3)nc2c1C` [SMR000811862] cannot be ordered by EC50: greater than 300 µM for the first, greater than 300 µM for the second.

First: COC(=O)c1nnn(-c2nonc2N)c1CN1CCCC1 [MLS001202105]
Second: CCCCOc1ccc(C=NNC(=O)c2nnn(-c3nonc3N)c2CN2CCCCCC2)cc1 [1-(4-amino-1,2,5-oxadiazol-3-yl)-5-(1-azepanylmethyl)-N-[(4-butoxyphenyl)methylideneamino]-4-triazolecarboxamide]
The EC50 of the first is higher: greater than 300 µM for the first, 55.3 µM for the second. The second is the more potent here.

`CC(C)C(=O)NC(C)C(c1cccs1)N1CCN(c2ccccc2)CC1` (stereo unspecified) [SMR000016589] and `CCCn1nc(NC(=O)c2cccs2)c2cc3ccccc3nc21` [Thiophene-2-carboxylic acid (1-propyl-1H-pyrazolo[3,4-b]quinolin-3-yl)-amide] cannot be ordered by EC50: greater than 300 µM for the first, greater than 300 µM for the second.

`NS(=O)(=O)c1ccc(CCNC(=O)CSc2nc3ccsc3c(=O)n2C2CC2)cc1` [MLS000586542] and `Cc1nc(Nc2ccccc2)sc1C(=O)c1ccc(F)cc1` [SMR000567585] cannot be ordered by EC50: greater than 300 µM for the first, greater than 300 µM for the second.

Compared with `OCCCNc1cc(-c2ccnc(Nc3cccc(Cl)c3)n2)ccn1`, `COc1ccccc1Nc1nc(NCCO)nc(N)c1[N+](=O)[O-]` is 410-fold higher in EC50: 0.212 µM for the first, 87.6 µM for the second.

`CCOC(=O)c1nnn(-c2nc(OC)nc(N3CCCC3)n2)c1-c1ccccc1` and `CN(Cc1c(C(=O)NN=Cc2ccccc2F)nnn1-c1nonc1N)c1ccccc1` [MLS001141029] cannot be ordered by EC50: greater than 300 µM for the first, greater than 300 µM for the second.

Compared with `O=C1CN=C(c2cccs2)c2c(sc3c2CCCC3)N1` [5-Thiophen-2-yl-1,2,3,4,7,9-hexahydro-10-thia-6,9-diaza-benzo[a]azulen-8-one], `Cc1c(Cl)cccc1Nc1ccccc1C(=O)O` is higher in EC50: 3.09 µM for the first, greater than 300 µM for the second. The first is the more potent here.
